# Experimental data from patent US20240279249A1, “Compound, Coating Composition Comprising Same, Organic Light-Emitting Device Using Same, and Manufacturing Method Therefor” (LG Chem, Ltd., priority 2021, published 2024).
# Like-named read-outs stand apart in the source and are kept apart here.
# Columns and labels:
# [1] = Film retention rate / solvent resistance: UV-vis absorption of heat-treated film after immersion in cyclohexanone; assay type: physicochemical; details: film from 4 wt % solution in cyclohexanone, 100 nm on quartz, heat-treated 190° C. to 200° C. in nitrogen 30 minutes, immersed in cyclohexanone 10 minutes; higher absorbance = more film retained
# Description: Thereafter, after the substrate was heat-treated at a temperature of 190° C. to 200° C. in a nitrogen atmosphere for 30 minutes, the UV-vis absorption spectrum was measured. Subsequently, the same sample was immersed in cyclohexanone for 10 minutes and remove, the solvent was dried from the sample, and then the UV-vis absorption spectrum was also measured.
# In the process of manufacturing the device, the film is retained while being cured during the heat treatment. The higher absorbance means that a relatively more residue remains on the film.
# [2] = Solubility at 5 wt % relative to each solvent
# Description: In a solution process organic light emitting device, when an ink solvent is selected for the process, the ink solvent needs to dissolve both a host and a dopant.
# [3] = 5 wt % relative to solvent, Acetone
# [4] = 5 wt % relative to solvent, Dichloromethane
# [5] = 5 wt % relative to solvent, Toluene
molecule,measurement,setting,value
C=Cc1ccc(-c2c(F)c(F)c(-c3c(F)c(F)c([B-](c4c(F)c(F)c(C(F)(F)F)c(F)c4F)(c4c(F)c(F)c(C(F)(F)F)c(F)c4F)c4c(F)c(F)c(C(F)(F)F)c(F)c4F)c(F)c3F)c(F)c2F)c2ccccc12 [Compound 7],Absorbance @ 350 nm,[1],0.603
Fc1c(F)c(-c2c(F)c(F)c([B-](c3c(F)c(F)c(C(F)(F)F)c(F)c3F)(c3c(F)c(F)c(C(F)(F)F)c(F)c3F)c3c(F)c(F)c(C(F)(F)F)c(F)c3F)c(F)c2F)c(F)c(F)c1-c1ccc2c(c1)CC2 [Compound 8],Absorbance @ 350 nm,[1],0.546
C=Cc1cc(C=C)cc(-c2c(F)c(F)c(-c3c(F)c(F)c([B-](c4c(F)c(F)c(C(F)(F)F)c(F)c4F)(c4c(F)c(F)c(C(F)(F)F)c(F)c4F)c4c(F)c(F)c(C(F)(F)F)c(F)c4F)c(F)c3F)c(F)c2F)c1 [Compound 5],Absorbance @ 350 nm,[1],0.801
same,Solubility in Acetone,[2]; [3],Dissolved
same,Solubility in Dichloromethane,[2]; [4],Dissolved
same,Solubility in Toluene,[2]; [5],Dissolved
"C=Cc1ccc(-c2cc(-c3ccc(C=C)cc3)cc(-c3c(F)c(F)c(-c4c(F)c(F)c([B-](c5c(F)c(F)c(C(F)(F)F)c(F)c5F)(c5c(F)c(F)c(C(F)(F)F)c(F)c5F)c5c(F)c(F)c(C(F)(F)F)c(F)c5F)c(F)c4F)c(F)c3F)c2)cc1.Cc1ccc([I+]c2ccc(C(C)C)cc2)cc1 [Compound 3, (4-isopropylphenyl) (p-tolyl)iodonium (2″,2′″,3″,13′″,5″,5′″,6″,6′″-octafluoro-4-vinyl-5′-(4-vinylphenyl)-[1,1′:3′,1″:4″,1′″-quarterphenyl]-4′″-yl)tris(2,3,5,6-tetrafluoro-4-(trifluoromethyl)phenyl)borate]",Absorbance @ 350 nm,[1],0.813
same,Solubility in Acetone,[2],Dissolved
same,Solubility in Dichloromethane,[2],Dissolved
same,Solubility in Toluene,[2],Dissolved
"Cc1ccc([I+]c2ccc(C(C)C)cc2)cc1.Fc1c(F)c([B-](c2c(F)c(F)c(C(F)(F)F)c(F)c2F)(c2c(F)c(F)c(C(F)(F)F)c(F)c2F)c2c(F)c(F)c(C(F)(F)F)c(F)c2F)c(F)c(F)c1-c1ccc2c(c1)CC2 [Comparative Compound 3, (4-isopropylphenyl) (p-tolyl)iodonium(4-(bicyclo[4.2.0]octa-1,3,5-trien-3-yl)-2,3,5,6-tetrfluorophenyl)tris(2,3,5,6-tetrafluoro-4-(trifluoromethyl)phenyl)borate, reference compound]",Absorbance @ 350 nm,[1],0.392
"(4-isopropylphenyl) (p-tolyl)iodonium (2,3,5,6-tetrafluoro-4′-vinyl-[1,1′-biphenyl]-4-yl)tris(2,3,5,6-tetrafluoro-4-(trifluoromethyl)phenyl)borate [Compound 1]",Absorbance @ 350 nm,[1],0.802
"C=Cc1c(F)c(F)c([B-](c2c(F)c(F)c(C(F)(F)F)c(F)c2F)(c2c(F)c(F)c(C(F)(F)F)c(F)c2F)c2c(F)c(F)c(C(F)(F)F)c(F)c2F)c(F)c1F.Cc1ccc([I+]c2ccc(C(C)C)cc2)cc1 [Comparative Compound 2, (4-isopropylphenyl) (p-tolyl)iodonium tris(2,3,5,6-tetrafluoro-4-(trifluoromethyl)phenyl) (2,3,5,6-tetrafluoro-4-vinylphenyl) borate, reference compound]",Absorbance @ 350 nm,[1],0.526
"C=Cc1ccc([B-](c2c(F)c(F)c(C(F)(F)F)c(F)c2F)(c2c(F)c(F)c(C(F)(F)F)c(F)c2F)c2c(F)c(F)c(C(F)(F)F)c(F)c2F)cc1.Cc1ccc([I+]c2ccc(C(C)C)cc2)cc1 [Comparative Compound 1, (4-isopropylphenyl) (p-tolyl) iodonium tris(2,3,5,6-tetrafluoro-4-(trifluoromethyl)phenyl) (4-vinylphenyl)borate, reference compound]",Absorbance @ 350 nm,[1],0.483
"C=Cc1ccc(-c2c(F)c(F)c([B-](c3c(F)c(F)c(-c4ccc(C=C)cc4)c(F)c3F)(c3c(F)c(F)c(-c4ccc(C=C)cc4)c(F)c3F)c3c(F)c(F)c(-c4ccc(C=C)cc4)c(F)c3F)c(F)c2F)cc1.Cc1ccc([I+]c2ccc(C(C)C)cc2)cc1 [Comparative Compound 4, (4-isopropylphenyl) (p-tolyl)iodonium tetrakis(2,3,5,6-tetrafluoro-4′-vinyl-[1,1′-biphenyl]-4-yl) borate, reference compound]",Absorbance @ 350 nm,[1],0.467
same,Solubility in Acetone,[2]; [3],Dissolved
same,Solubility in Dichloromethane,[2]; [4],Dissolved
same,Solubility in Toluene,[2]; [5],Insoluble
